Assay results from patent US5665745A, “Heterocyclic compounds and their preparation and use” (Eli Lilly and Company, priority 1995, dated 1997).
Where two headings read alike, the source gives them in different places.

Experiments:
[1] = target: T1, muscarinic receptors (M1 -site, pirenzepine sensitive site) (Rattus norvegicus, UniProt P08482); test: inhibition of ^3 HPRZ (pirenzepine, [N-methyl-^3 H]) binding to rat cerebral cortex membranes; parameters: species or system rat (male Wistar
T1 construct: from tissue; host or cells: cerebral cortex membranes of male Wistar rats
T1 sequence (P08482 1-460): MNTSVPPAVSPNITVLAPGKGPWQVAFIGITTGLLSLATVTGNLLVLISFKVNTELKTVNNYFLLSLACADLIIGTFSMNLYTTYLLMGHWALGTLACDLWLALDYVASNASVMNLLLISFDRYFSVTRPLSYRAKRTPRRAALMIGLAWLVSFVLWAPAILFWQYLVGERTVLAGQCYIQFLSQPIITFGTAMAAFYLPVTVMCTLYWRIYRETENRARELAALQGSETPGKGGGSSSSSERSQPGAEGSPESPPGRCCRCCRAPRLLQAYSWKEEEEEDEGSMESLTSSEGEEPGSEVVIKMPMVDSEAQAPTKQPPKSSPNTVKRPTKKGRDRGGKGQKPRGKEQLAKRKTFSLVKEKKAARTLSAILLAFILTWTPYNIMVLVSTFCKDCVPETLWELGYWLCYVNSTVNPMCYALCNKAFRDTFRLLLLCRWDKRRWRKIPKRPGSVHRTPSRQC
Outline: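 Male Wistar rat cortex membranes in 20 mM Hepes pH 7.4 were incubated with 1.0 nM (final) [3H]pirenzepine for 60 min at 20° C; nonspecific binding was defined with 1 μg/mL atropine. Filtration and scintillation counting were used, and IC50 was calculated from a single concentration assuming mass-action kinetics.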

[2] = target: muscarinic acetylcholine receptors; test: inhibition of specific binding of ^3 H-Oxotremorine-M (^3 H-Oxo); parameters: species or system rat (male Wistar; details: ^3 H-Oxotremorine 1.0 nM, rat cortex, 30 min. at 25° C.
Outline: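 Rat cortex membranes (male Wistar) in 20 mM Hepes pH 7.4 incubated with 1.0 nM ^3H-Oxotremorine-M (final) and test compound for 30 min at 25 °C; arecoline defines non-specific binding. Bound radioactivity by filtration and scintillation counting; IC50 (nM) from a single concentration via Co/Cx mass-action formula, reflecting high- and medium-affinity sites.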

[3] = ^3 HPRZ 1.0 nM, rat cortex, 60 min. at 20° C., read-out: ^3 HPRZ IC50 (head from b208 on: Pir IC-50)

Row | Structure (SMILES) | IC50 [1, 3] [nM] | IC50 [2] [nM] | IC50 [1] [nM]
1 | CCCCOc1nsnc1OC[C@@H]1CCCN1 [Compound 32, (S)-3-Butyloxy-4-(2-pyrrolidinylmethyloxy)-1,2,5-thiadiazole] | 45 | 77 | 
2 | ClCCCOc1nsnc1OC1CN2CCC1CC2 (racemic) [Compound 116, (±)-3-(3-Chloropropoxy)-4-(1-azabicyclo[2.2.2]octyl-3-oxy)-1,2,5-thiadiazole] |  | 14 | 33
3 | Fc1ccc(OC(CCSc2nsnc2OC2CN3CCC2CC3)c2ccc(F)cc2)cc1 (racemic) [Compound 152, (±)-3-(3-[4-fluorophenyl]-3-[4-fluorophenoxy]propylthio)-4-(1-azabicyclo[2.2.2]octyl-3-oxy)-1,2,5-thiadiazole] | 243 | 436 | 
4 | Clc1nsnc1OC1CN2CCC1CC2 (racemic) [Compound 12, (±)-3-Chloro-4-(1-azabicyclo[2.2.2]octyl-3-oxy)-1,2,5-thiadiazole] |  | 73 | 86
5 | CC(Oc1nsnc1OC1CN2CCCC1C2)C1CC1 (mixture of isomers) [Compound 199, (±)-endo-3-(1-cyclopropylethoxy)-4-(1-azabicyclo[3.2.1]octyl-6-oxy)-1,2,5-thiadiazole] | 5.4 | 3.3 | 
6 | FC(F)(F)C(F)(F)COc1nsnc1OC1CN2CCC1CC2 (racemic) [Compound 125, (±)-3-(3,3,3,2,2-Pentafluoropropyloxy)-4-(1-azabicyclo[2.2.2]octyl-3-oxy)-1,2,5-thiadiazole] | 191 | 36 | 
7 | FC(F)(F)CCCOc1nsnc1OC1CN2CCC1CC2 (racemic) [Compound 104, (±)-3-(4,4,4-Trifluorobutyloxy)-4-(1-azabicyclo[2.2.2]octyl-3-oxy)-1,2,5-thiadiazole] | 115 | 107 | 
8 | CCCCCCc1nsnc1OC1CN2CCC1CC2 (racemic) [Compound 101, (±)-3-Hexyl-4-(1-azabicyclo[2.2.2]octyl-3-oxy)-1,2,5-thiadiazole] |  | 88 | 36
9 | c1ccc(CCCSc2nsnc2OC2CN3CCC2CC3)cc1 (racemic) [Compound 40, (±)-3-(3-Phenylpropylthio)-4-(1-azabicyclo[2.2.2]octyl-3-oxy)-1,2,5-thiadiazole] |  | 1.8 | 2.5
10 | CC(C)CCCSc1nsnc1OC1CN2CCC1CC2 (racemic) [Compound 39, (±)-3-(4-Methylpentylthio)-4-(1-azabicyclo[2.2.2]octyl-3-oxy)-1,2,5-thiadiazole] |  | 13 | 15
11 | CCCCSc1nsnc1OCCN(CC)CC [Compound 34, 3-Butylthio-4-(2-(diethylamino)ethoxy)-1,2,5-thiadiazole] | 10 | 86 | 
12 | c1csc(CCCOc2nsnc2O[C@@H]2CN3CCC[C@H]2C3)c1 (relative stereo) [Compound 206, (±)-endo-3-[3-(2-Thienyl)propoxy]-4-(1-azabicyclo[3.2.1]octyl-6-oxy)-1,2,5-thiadiazole] | 5 | 6.1 | 
13 | C=CCCOc1nsnc1O[C@@H]1CN2CCC[C@H]1C2 (relative stereo) [Compound 184, (±)-endo-3-(3-Butenyloxy)-4-(1-azabicyclo[3.2.1]octyl-6-oxy)-1,2,5-thiadiazole] | 2.2 | 1.2 | 
14 | c1nsnc1OCCOc1nsnc1OC1CN2CCC1CC2 (racemic) [Compound 132, (±)-3-(2-[3-{1,2,5-Thiadiazoyloxy}]ethoxy)-4-(1-azabicyclo[2.2.2]octyl-3-oxy)-1,2,5-thiadiazole] |  | 11 | 66
15 | c1ccc2cc(CCOc3nsnc3O[C@@H]3CN4CCC[C@H]3C4)ccc2c1 (relative stereo) [Compound 178, (±)-endo-3-[2-(2-Napthyl)ethoxy]-4-(1-azabicyclo[3.2.1]octyl-6-oxy)-1,2,5-thiadiazole] | 61 | 15 | 
16 | C/C=C/COc1nsnc1O[C@@H]1CN2CCC[C@H]1C2 (relative stereo) [Compound 169, (±)-endo-3-(trans-2-Butenyloxy)-4-(1-azabicyclo[3.2.1]octyl-6-oxy)-1,2,5-thiadiazole] | 1.9 | 1 | 
17 | CCCCOc1nsnc1OCC[N+](C)(C)C [Compound 35, 3-Butyloxy-4-(2-(trimethylamino)ethoxy)-1,2,5-thiadiazole iodide] | 33 | 23 | 

Row | Structure (SMILES) | IC50 [1, 3] [nM] | IC50 [2] [nM] | IC50 [1] [nM]
18 | CCCCOc1nsnc1O[C@@H]1CCC[C@H]1N(C)C (racemic) [Compound 52, (±)-trans-3-Butyloxy-4-(2-dimethylaminocyclopentyloxy)-1,2,5-thiadiazole] | 475 | > 1000 | 
19 | CCC#CCCOc1nsnc1O[C@@H]1CN2CCC[C@H]1C2 (relative stereo) [Compound 176, (±)-endo-3-(3-Hexynyloxy)-4-(1-azabicyclo[3.2.1]octyl-6-oxy)-1,2,5-thiadiazole] | 3 | 1.3 | 
20 | CCCCCSc1nsnc1O[C@H]1CN2CCC1CC2 [Compound 38, (R)-3-Pentylthio-4-(1-azabicyclo[2.2.2]octyl-3-oxy)-1,2,5-thiadiazole] |  | 1 | 1.9
21 | Fc1ccc(OCCSc2nsnc2OC2CN3CCC2CC3)cc1 (racemic) [Compound 207, (±)-3-(2-[4-fluorophenoxy]ethylthio)-4-(1-azabicyclo[2.2.2]octyl-3-oxy)-1,2,5-thiadiazole] |  | 2.4 | 6
22 | FC(F)(F)CCCOc1nsnc1OC1CC2CCC1NC2 (mixture of isomers) [Compound 162, (±)-endo-3-(4,4,4-Trifluorobutyloxy)-4-(2-azabicyclo[2.2.2]octyl-6-oxy)-1,2,5-thiadiazole] | 128 | 179 | 
23 | CCCOc1nsnc1OC1CN2CCC1CC2 (racemic) [Compound 7, (±)-3-propyloxy-4-(1-azabicyclo[2.2.2]octyl-3-oxy)-1,2,5-thiadiazole] |  | 10.7 | 26
24 | ClCCCOc1nsnc1O[C@@H]1CN2CCC[C@H]1C2 (relative stereo) [Compound 177, (±)-endo-3-(3-Chloropropoxy)-4-(1-azabicyclo[3.2.1]octyl-6-oxy)-1,2,5-thiadiazole] | 2 | 1.1 | 
25 | CCCCSc1nsnc1OCC1CN2CCC1CC2 (racemic) [Compound 22, (±)-3-Butylthio-4-((1-azabicyclo[2.2.2]octan-3-yl)-methoxy)-1,2,5-thiadiazole] |  | 23 | 7.4
26 | CCCCCOc1nsnc1OC1CN2CCC1CC2 (racemic) [Compound 9, (±)-3-Pentyloxy-4-(1-azabicyclo[2.2.2]octyl-3-oxy)-1,2,5-thiadiazole] |  | 11 | 25
27 | COCCOc1nsnc1OC1CN2CCC1CC2 (racemic) [Compound 111, (±)-3-(2-Methoxyethoxy)-4-(1-azabicyclo[2.2.2]octyl-3-oxy)-1,2,5-thiadiazole] |  | 38 | 85
28 | C1C[C@H]2CN(C1)C[C@H]2Oc1nsnc1OCCC1CC1 (relative stereo) [Compound 185] | 2 | 0.76 | 
29 | Fc1ccc(OCCOc2nsnc2OC2CN3CCC2CC3)cc1 (racemic) [Compound 121, (±)-3-(2-[4-Fluorophenoxy]ethoxy)-4-(1-azabicyclo[2.2.2]octyl-3-oxy)-1,2,5-thiadiazole] | 146 | 12 | 
30 | FCCCOc1nsnc1OC1CN2CCC1CC2 (racemic) [Compound 123, (±)-3-(3-Fluoropropyloxy)-4-(1-azabicyclo[2.2.2]octyl-3-oxy)-1,2,5-thiadiazole] | 106 | 42 | 
31 | CC(C)=CCCOc1nsnc1O[C@@H]1CN2CCC[C@H]1C2 (relative stereo) [Compound 180, (±)-endo-3-(4-Methyl-3-pentenyloxy)-4-(1-azabicyclo[3.2.1]octyl-6-oxy)-1,2,5-thiadiazole] | 11 | 4.7 | 
32 | CC(C)(C)CCSc1nsnc1OC1CN2CCC1CC2 (racemic) [Compound 18, (±)-3-(3,3-Dimethylbutylthio)-4-(1-azabicyclo[2.2.2]-octyl-3-oxy)-1,2,5-thiadiazole] |  | 101 | 73
33 | CCCCCSc1nsnc1O[C@@H]1CN2CCC1CC2 [Compound 16, (S)-3-Pentylthio-4-(1-azabicyclo[2.2.2]octyl-3-oxy)-1,2,5-thiadiazole] |  | 6.4 | 2
34 | C1CCC(CCCCOc2nsnc2O[C@@H]2CN3CCC[C@H]2C3)CC1 (relative stereo) [Compound 202, (±)-endo-3-(4-Cyclohexylbutoxy)-4-(1-azabicyclo[3.2.1]octyl-6-oxy)-1,2,5-thiadiazole] | 31 | 13 | 
